In one data set the test system is diabetic ob/ob mice. The data set is described as follows: Chronic (28 days) treatment of diabetic ob/ob mice: glucose, HbA1c, body weight. In kind it is in vivo, mouse. How it is done:
The time course of the effect of the test compound on body weight, glucose lowering and HbA1c lowering in ob/ob mice was investigated post dose, with values at 4 weeks presented in FIGS. 11A, 11B, 11C and 11D. […] Points represent mean±s.d. (standard deviation). Each test compound was injected IP on day=0 immediately following baseline sample collection in non-fasted male ob/ob mice. […] Unless indicated otherwise, blood glucose measures described herein employed a OneTouch® Ultra® device (LifeScan, Inc. Miliptas, Calif.).

Another data set relates to ob/ob mice. The data set is described as follows: Body weight, glucose and HbA1c in ob/ob mice after a single sc dose. The note with it: single sc injection, non-fasted male ob/ob mice; Cmpd 15 at 250 nmol/kg. In kind it is in vivo, mouse. An excerpt: Changes in glucose (% pre-treatment) and in HbA1c (% pre-treatment) are depicted in FIGS. 5B-5C. Points represent mean±s.d. (standard deviation). […] Unless indicated otherwise, blood glucose measures described herein employed a OneTouch® Ultra® device (LifeScan, Inc. Miliptas, Calif.).

The next data set concerns NIH/Swiss mice. The data set is described as follows: OGTT DOA (oral glucose tolerance test for duration of action) in NIH/Swiss mice. The format is in vivo, mouse. The following applies: Table 6; 25 nmol/kg IP at t=−1 day; blood glucose at 30 min after glucose gavage ([…]); 4 hr fasted NIH/Swiss female mice.
The subject of a further data set is Sprague Dawley rats. The experiment in a line: IVGTT DOA in HSD fed anesthetized rats 5 days post dose. In kind it is in vivo, rat. The note with it: 240 nmol/kg. How it is done: In vivo assays for activity and duration of action and pharmacokinetics can be done using known methods. For example, duration can be performed using an oral glucose tolerance test (OGTT) in which the drug is administered to the subject at a desired time point before the glucose is administered orally (to measure drug duration of action; OGTT DOA) and glucose blood levels are measured (e.g. readily done in mice). Activity and duration can also be measured using an intravenous glucose tolerance test (IVGTT) in which the drug is administered to the subject at a desired time point before the glucose is administered IV (IVGTT DOA) and blood glucose levels are measured (e.g. can readily be done in rats). Preferred engineered compounds have a desired effect on blood glucose of at least 24 hours duration after a single dose of drug, preferably at least 3 days, at least 4 days, at least 5 days, at least 6 days, and at least 1 week after the single dose of drug is given.
The time course of plasma glucose after IVGTT is depicted in FIG. 4A. Integrated (AUC0-60) glucose levels are depicted in the histogram of FIG. 4B. The time course of the change in insulin levels in the test subjects was depicted in FIG. 4C. The integrated insulin levels (AUC0-30) are depicted in FIG. 4D. The time course of body weight change (% change from baseline) is depicted for the test subjects in FIG. 4E. […]

Another data set has as its system db/db mice. The experiment in a line: Oral (gavage) delivery, blood glucose lowering in diabetic db/db mice. The format is in vivo, mouse. The following applies: 240 nmol/kg peroral by gavage in PBS/propylene glycol (50:50); 2-hour fasted db/db mice; to 120 minutes.
Data set [1] in a line: Stability in human plasma. In kind it is in vitro ADME. The following applies: 10 μg/ml in human plasma, 37 degrees C, 5 hours; normalized to a standard (100%).
A further data set relates to C57BL6 female mice. The data set is described as follows: Kidney vacuolization (cytoplasmic vacuolation of renal cortical tubular epithelial cells). The format is in vivo, mouse. The following applies: Example 14; sc injection on days 0-6, kidneys on day 7. How it is done: With some drugs, such as some pegylated proteins, undesirable vacuoles can form in cytoplasm of epithelial cells lining the proximal convoluted tubules, which is an undesirable toxicity measure. […] C57BL6 female mice (n=2 cages, 3 mice/cage) were weighed daily 3 hours prior to lights out Immediately after weighing, on days 0-6 mice were injected subcutaneously with test compound. Mice were sacrificed on day 7 and kidneys submitted for histopathology. […] A positive control compound known to cause vacuole formation was scored as 3. The ABD polypeptide itself scored 0.
With some drugs, such as some pegylated proteins, undesirable vacuoles can form in cytoplasm of epithelial cells lining the proximal convoluted tubules, which is an undesirable toxicity measure. […] C57BL6 female mice (n=2 cages, 3 mice/cage) were weighed daily 3 hours prior to lights out Immediately after weighing, on days 0-6 mice were injected subcutaneously with test compound. Mice were sacrificed on day 7 and kidneys submitted for histopathology. […] A positive control compound known to cause vacuole formation was scored as 3.

Data set [2] is described as follows: PK profile, food intake and body weight after a single subcutaneous dose in normal HSD rats. The note with it: 25 nmol/kg subcutaneous. In kind it is in vivo, rat. How it is done:
Blood was collected via tail bleed at t=1 hour, 3 hours, 6 hours, 24 hours, 48 hours, 72 hours, 96 hours and 168 hours from fed HSD male rats. Food and body weights were measured daily. […] Points represent mean±sd.
Pharmacokinetic profile and biological activity of an exemplary engineered polypeptide subcutaneously dosed in normal Harlan Sprague-Dawley (HSD) rats is presented. […] Blood was collected via tail bleed at t=1 hour, 3 hours, 6 hours, 24 hours, 48 hours, 72 hours, 96 hours and 168 hours from fed HSD male rats. Food and body weights were measured daily. […] Points represent mean±sd. In the figures, vehicle is solid square, Cmpd 2-11 is open inverted triangle and Cmpd 2-9 is closed triangle. The plasma maximal concentration in FIG. 18C is equivalent to about 25,000 picomolar.

The mark [3] stands for this setting: 25 and 250 nmol/kg IP twice each week for 28 days.

Consider one sequence from US20150133373A1, “TRANSMUCOSAL DELIVERY OF ENGINEERED POLYPEPTIDES” (priority 2012, published 2015).

As for “HGEGTFTSDLSKQLEEEAVRLFIEWLKQGGPSKEIISTGGGGSASLAEAKVLANRELDKYGVSDFYKRLINKAKTVEGVEALKLHILAALP [Cmpd 15]”, in the data set with diabetic ob/ob mice (25 nmol/kg biw IP vs exendin-4 ~[…] CSI, 28 days), the “glycemic and body weight loss effects compared to the maximally efficacious dose of exendin-4 (in words)” value is given as “exceeded”. For the same sequence, the “effect compared to the maximally efficacious dose of exendin-4 (in words)” value with diabetic ob/ob mice (250 nmol/kg biw IP, 28 days) is listed as “significantly greater than the maximally efficacious dose of exendin-4”. In the data set with diabetic ob/ob mice (setting [3]), the “HbA1c lowering (in words)” value is recorded as “significant HbA1c lowering” and the “body weight loss (in words)” value is recorded as “significant body weight loss”. Moreover, the “HbA1c lowering and body weight loss compared to liraglutide (in words)” value in the data set with diabetic ob/ob mice (equimolar dosing to liraglutide, data not shown) was “more effective than liraglutide”. Besides, the “glucose lowering upon chronic exposure compared to liraglutide (in words)” value in the data set on diabetic ob/ob mice (equimolar dosing, twice weekly (BIW), ob/ob mice) was “superior to liraglutide”. Also, the “body weight in ob/ob mice (in words)” value with ob/ob mice is recorded as “significant body weight loss”. Further, the “% Glucose Lowering Compared to Vehicle” value in the data set with NIH/Swiss mice is given as −21%. In addition, in the data set with Sprague Dawley rats, the “time after administration at which drug activity is present (IVGTT DOA)” value was “at least 5 days”. Besides, the “activity after oral dosing (blood glucose, in words)” value in the data set with db/db mice is “active when dosed orally”. The “Percent Stable in Human Plasma” value in data set [1] is on record as 96.0%. In addition, the “Severity score for cytoplasmic vacuolation of renal cortical tubular epithelial cells” value with C57BL6 female mice turned out to be 0. Further, in data set [2], the apparent half-life worked out at 54 h.
